Reference: the supplement of paper PMC11208160

Assay: recombinant barcode read abundance after kanamycin selection (control-corrected) (log10(CPM+1)); higher = more efficient recombination; sequences stand for … in AGTGCAGAGAAAATCGGCCAGTTTTCTCTGCCTGCAGTCCGCATGCCGT…ATTTATGCAGCGGACTGCCTTTCTCCCAAAGTGATAAACCGGACAGTATCATGGACCGGTTTTCCCGGTAATCCGTATTTGCAAGGTTGGTTTCACT; site = the 11-nt target
In short: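 A vector carrying a T7-inducible recombinase and the last 73 bp of the bridge RNA received, by Gibson cloning, oligos encoding a promoter, target, barcode and the first 104 bridge RNA bases under J23119. The pooled constructs entered E. coli together with a donor plasmid by electroporation. Selection used chloramphenicol/ampicillin/kanamycin with 0.1 mM IPTG, with chloramphenicol/ampicillin LB agar as the control, each in two replicates. Recombination efficiency is the averaged, control-corrected counts-per-million of barcodes at recombinant junctions, reported as log10(CPM+1).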

Row | Sequence | recombinant barcode read abundance (log10)
1 | GGGCGTGTTTGGGTTCTAACCTGTTGCCTAG [GGGCGTGCTAG_LTGcore_TT_RTGcore_CT] (site GGGCGTGCTAG) (LTG core: TT, RTG core: CT) | 0.0908
2 | GGTGCCCAATGGGTTCTAACCTGTTGCCGAG [GGTGCCCCTCG_LTGcore_AA_RTGcore_CT] (site GGTGCCCCTCG) (LTG core: AA, RTG core: CT) | 0.135
3 | GGTGCCCACTGGGTTCTAACCTGTTGCCGGT [GGTGCCCCTCG_LTGcore_AC_RTGcore_AC] (site GGTGCCCCTCG) (LTG core: AC, RTG core: AC) | 0.066
4 | GGTGCCCAGTGGGTTCTAACCTGTTGCCGCT [GGTGCCCCTCG_LTGcore_AG_RTGcore_AG] (site GGTGCCCCTCG) (LTG core: AG, RTG core: AG) | 0.102
5 | GGTGCCCCTTGGGTTCTAACCTGTTGCCGAT [GGTGCCCCTCG_LTGcore_CT_RTGcore_AT] (site GGTGCCCCTCG) (LTG core: CT, RTG core: AT) | 0.19
6 | GGTGCCCCTTGGGTTCTAACCTGTTGCCGCC [GGTGCCCCTCG_LTGcore_CT_RTGcore_GG] (site GGTGCCCCTCG) (LTG core: CT, RTG core: GG) | 0.0795
7 | GGTGCCCCTTGGGTTCTAACCTGTTGCCGCG [GGTGCCCCTCG_LTGcore_CT_RTGcore_CG] (site GGTGCCCCTCG) (LTG core: CT, RTG core: CG) | 0.222
8 | GGTGCCCCTTGGGTTCTAACCTGTTGCCGCT [GGTGCCCCTCG_LTGcore_CT_RTGcore_AG] (site GGTGCCCCTCG) (LTG core: CT, RTG core: AG) | 0.0402
9 | GGTGCCCCTTGGGTTCTAACCTGTTGCCGGC [GGTGCCCCTCG_LTGcore_CT_RTGcore_GC] (site GGTGCCCCTCG) (LTG core: CT, RTG core: GC) | 0.83
10 | GGTGCCCCTTGGGTTCTAACCTGTTGCCGGT [GGTGCCCCTCG_LTGcore_CT_RTGcore_AC] (site GGTGCCCCTCG) (LTG core: CT, RTG core: AC) | 0.0162
11 | GGTGCCCGGTGGGTTCTAACCTGTTGCCGCC [GGTGCCCCTCG_LTGcore_GG_RTGcore_GG] (site GGTGCCCCTCG) (LTG core: GG, RTG core: GG) | 0.0147
12 | GGTGCCCGTTGGGTTCTAACCTGTTGCCGAG [GGTGCCCCTCG_LTGcore_GT_RTGcore_CT] (site GGTGCCCCTCG) (LTG core: GT, RTG core: CT) | 0.0597
13 | GGTGCCCTTTGGGTTCTAACCTGTTGCCGAA [GGTGCCCCTCG_LTGcore_TT_RTGcore_TT] (site GGTGCCCCTCG) (LTG core: TT, RTG core: TT) | 0.622
14 | GTCGCCCAATGGGTTCTAACCTGTTGCTAAG [GTCGCCCCTTA_LTGcore_AA_RTGcore_CT] (site GTCGCCCCTTA) (LTG core: AA, RTG core: CT) | 0.688
15 | GTCGCCCACTGGGTTCTAACCTGTTGCTAAG [GTCGCCCCTTA_LTGcore_AC_RTGcore_CT] (site GTCGCCCCTTA) (LTG core: AC, RTG core: CT) | 0.309
16 | GTCGCCCCATGGGTTCTAACCTGTTGCTAAG [GTCGCCCCTTA_LTGcore_CA_RTGcore_CT] (site GTCGCCCCTTA) (LTG core: CA, RTG core: CT) | 2.04
17 | GTCGCCCCCTGGGTTCTAACCTGTTGCTAAG [GTCGCCCCTTA_LTGcore_CC_RTGcore_CT] (site GTCGCCCCTTA) (LTG core: CC, RTG core: CT) | 0.771
18 | GTCGCCCCTTGGGTTCTAACCTGTTGCTAAT [GTCGCCCCTTA_LTGcore_CT_RTGcore_AT] (site GTCGCCCCTTA) (LTG core: CT, RTG core: AT) | 0.474
19 | GTCGCCCCTTGGGTTCTAACCTGTTGCTACG [GTCGCCCCTTA_LTGcore_CT_RTGcore_CG] (site GTCGCCCCTTA) (LTG core: CT, RTG core: CG) | 0.323
20 | GTCGCCCCTTGGGTTCTAACCTGTTGCTAGA [GTCGCCCCTTA_LTGcore_CT_RTGcore_TC] (site GTCGCCCCTTA) (LTG core: CT, RTG core: TC) | 0.304
21 | GTCGCCCGCTGGGTTCTAACCTGTTGCTAGC [GTCGCCCCTTA_LTGcore_GC_RTGcore_GC] (site GTCGCCCCTTA) (LTG core: GC, RTG core: GC) | 0.459
22 | GTCGCCCTCTGGGTTCTAACCTGTTGCTAAG [GTCGCCCCTTA_LTGcore_TC_RTGcore_CT] (site GTCGCCCCTTA) (LTG core: TC, RTG core: CT) | 0

Row | Sequence | recombinant barcode read abundance (log10)
23 | TAAGAATACTGGGTTCTAACCTGTTGCCTGT [TAAGAATCTAG_LTGcore_AC_RTGcore_AC] (site TAAGAATCTAG) (LTG core: AC, RTG core: AC) | 0.0208
24 | TAAGAATCATGGGTTCTAACCTGTTGCCTAG [TAAGAATCTAG_LTGcore_CA_RTGcore_CT] (site TAAGAATCTAG) (LTG core: CA, RTG core: CT) | 0.838
25 | TAAGAATCTTGGGTTCTAACCTGTTGCCTAC [TAAGAATCTAG_LTGcore_CT_RTGcore_GT] (site TAAGAATCTAG) (LTG core: CT, RTG core: GT) | 0.116
26 | TAAGAATCTTGGGTTCTAACCTGTTGCCTCA [TAAGAATCTAG_LTGcore_CT_RTGcore_TG] (site TAAGAATCTAG) (LTG core: CT, RTG core: TG) | 0.343
27 | TAAGAATCTTGGGTTCTAACCTGTTGCCTCC [TAAGAATCTAG_LTGcore_CT_RTGcore_GG] (site TAAGAATCTAG) (LTG core: CT, RTG core: GG) | 0.142
28 | TAAGAATCTTGGGTTCTAACCTGTTGCCTGT [TAAGAATCTAG_LTGcore_CT_RTGcore_AC] (site TAAGAATCTAG) (LTG core: CT, RTG core: AC) | 0.0874
29 | TAAGAATGATGGGTTCTAACCTGTTGCCTAG [TAAGAATCTAG_LTGcore_GA_RTGcore_CT] (site TAAGAATCTAG) (LTG core: GA, RTG core: CT) | 0.0742
30 | TAAGAATGCTGGGTTCTAACCTGTTGCCTGC [TAAGAATCTAG_LTGcore_GC_RTGcore_GC] (site TAAGAATCTAG) (LTG core: GC, RTG core: GC) | 0.0564
31 | TAAGAATGGTGGGTTCTAACCTGTTGCCTCC [TAAGAATCTAG_LTGcore_GG_RTGcore_GG] (site TAAGAATCTAG) (LTG core: GG, RTG core: GG) | 0.113
32 | TAAGAATTCTGGGTTCTAACCTGTTGCCTGA [TAAGAATCTAG_LTGcore_TC_RTGcore_TC] (site TAAGAATCTAG) (LTG core: TC, RTG core: TC) | 0.0111
33 | TAAGAATTGTGGGTTCTAACCTGTTGCCTCA [TAAGAATCTAG_LTGcore_TG_RTGcore_TG] (site TAAGAATCTAG) (LTG core: TG, RTG core: TG) | 0.0917
34 | TAGAGGGATTGGGTTCTAACCTGTTGCGGAG [TAGAGGGCTCC_LTGcore_AT_RTGcore_CT] (site TAGAGGGCTCC) (LTG core: AT, RTG core: CT) | 0.147
35 | TAGAGGGCGTGGGTTCTAACCTGTTGCGGAG [TAGAGGGCTCC_LTGcore_CG_RTGcore_CT] (site TAGAGGGCTCC) (LTG core: CG, RTG core: CT) | 2.42
36 | TAGAGGGGTTGGGTTCTAACCTGTTGCGGAG [TAGAGGGCTCC_LTGcore_GT_RTGcore_CT] (site TAGAGGGCTCC) (LTG core: GT, RTG core: CT) | 0.85
37 | TCGCGACATTGGGTTCTAACCTGTTGCCGAT [TCGCGACCTCG_LTGcore_AT_RTGcore_AT] (site TCGCGACCTCG) (LTG core: AT, RTG core: AT) | 0.205
38 | TCGCGACCCTGGGTTCTAACCTGTTGCCGAG [TCGCGACCTCG_LTGcore_CC_RTGcore_CT] (site TCGCGACCTCG) (LTG core: CC, RTG core: CT) | 0.466
39 | TCGCGACCGTGGGTTCTAACCTGTTGCCGCG [TCGCGACCTCG_LTGcore_CG_RTGcore_CG] (site TCGCGACCTCG) (LTG core: CG, RTG core: CG) | 0.0313
40 | TCGCGACCTTGGGTTCTAACCTGTTGCCGAC [TCGCGACCTCG_LTGcore_CT_RTGcore_GT] (site TCGCGACCTCG) (LTG core: CT, RTG core: GT) | 0.201
41 | TCGCGACCTTGGGTTCTAACCTGTTGCCGGC [TCGCGACCTCG_LTGcore_CT_RTGcore_GC] (site TCGCGACCTCG) (LTG core: CT, RTG core: GC) | 0.0211
42 | TCGCGACCTTGGGTTCTAACCTGTTGCCGTG [TCGCGACCTCG_LTGcore_CT_RTGcore_CA] (site TCGCGACCTCG) (LTG core: CT, RTG core: CA) | 0.0363
43 | TCGCGACGGTGGGTTCTAACCTGTTGCCGAG [TCGCGACCTCG_LTGcore_GG_RTGcore_CT] (site TCGCGACCTCG) (LTG core: GG, RTG core: CT) | 0.167
